Experimental data taken from US20240269155A1, “METHODS AND USES OF BORON COMPOUNDS IN THE TREATMENT OF NONTUBERCULOUS MYCOBACTERIUM INFECTIONS AND PHARMACEUTICAL COMPOSITIONS FOR TREATMENT OF SAME” (priority 2022, published 2024).
≈ marks a conversion by molar mass, not a printed value. Read-outs that look alike come from different tables or passages of the source.

Assays:
[1] = tested on: M. gordonae; assay: MIC determination (CLSI M24-A2); type: cell-based, Mycobacterium gordonae; conditions: Mycobacterium gordonae, read-out: MIC
Experimental: (§1) The in vitro activity of the parent boron compound described herein was assessed by standard testing procedures such as the determination of minimum inhibitory concentration (MIC) as described in Clinical and Laboratory Standards Institute (CLSI) document M24-A2. Lower MIC values indicate high antibacterial activity, while higher MIC values indicate a reduced antibacterial activity. Generally, MIC values of about ≤2 mg/L indicate a good therapeutic (i.e., suitable for therapy) potency for antibacterial drugs, while MIC values of ≥8 mg/L indicate a lack of therapeutically useful activity for a test compound.
(§2) (MIC ranges from 0.063-2 mg/L).

[2] = tested on: M. intercelleulare; assay: MIC determination (CLSI M24-A2); type: cell-based, Mycobacterium intercelleulare; conditions: Mycobacterium, read-out: MIC
Experimental: as §1, §2

[3] = tested on: M. peregrinum; assay: MIC determination (CLSI M24-A2); type: cell-based, Mycobacterium peregrinum
Experimental: as §1, §2

[4] = tested on: M. scrofulaceum; assay: MIC determination (CLSI M24-A2); type: cell-based, Mycobacterium scrofulaceum; conditions: Mycobacterium scrofulaceum, read-out: MIC
Experimental: as §1, §2

[5] = tested on: M. abscessus; assay: MIC determination (CLSI M24-A2); type: cell-based, Mycobacterium abscessus; conditions: Mycobacteroides abscessus, read-out: MIC
Experimental: as §1, §2

[6] = tested on: M. fortuitum; assay: MIC determination (CLSI M24-A2); type: cell-based, Mycobacterium fortuitum
Experimental: as §1, §2

[7] = tested on: Mycobacteria pathogens; assay: MIC against mycobacteria pathogens, summary over species; type: cell-based, nontuberculous Mycobacterium
[8] = tested on: M. massiliense; assay: MIC determination (CLSI M24-A2); type: cell-based, Mycobacterium massiliense; conditions: Mycobacteroides abscessus, read-out: MIC
Experimental: as §1, §2

[9] = tested on: M. smegmatis; assay: MIC determination (CLSI M24-A2); type: cell-based, Mycobacterium smegmatis
Experimental: as §1, §2

[10] = tested on: M. avium; assay: MIC determination (CLSI M24-A2); type: cell-based, Mycobacterium avium; conditions: Mycobacterium avium, read-out: MIC
Experimental: as §1, §2

[11] = Lung distribution study in mouse; type: in vivo, Balb/C mouse; conditions: 10 mg/kg po
[12] = tested on: clinical isolates of M. abscessus complex; assay: MIC against clinical isolates of M. abscessus complex; type: cell-based, M. abscessus and M. massiliense; conditions: Mycobacteroides abscessus, read-out: MIC
[13] = tested on: clinical isolates of M. abscessus complex; assay: MBC against clinical isolates of M. abscessus complex; type: cell-based, M. abscessus and M. massiliense; conditions: for Classification: from MBC/MIC ratio
[14] = Mycolicibacterium peregrinum, read-out: MIC
[15] = Mycolicibacterium fortuitum, read-out: MIC
[16] = Mycolicibacterium smegmatis, read-out: MIC

OB1OCc2cc(F)ccc21 [AN2690]
MIC [1]: 8 µg/mL (≈ 52.7 µM) | MIC [2]: > 8 µg/mL | MIC [3, 14]: > 8 µg/mL | MIC [4]: 8 µg/mL (≈ 52.7 µM) | MIC [5]: > 8 µg/mL | MIC [6, 15]: > 8 µg/mL | activity against all NTM species tested ([7]; all NTM species tested): moderate or no activity | MIC [8]: 4 µg/mL (≈ 26.3 µM) | MIC [9, 16]: > 8 µg/mL | MIC [10]: > 8 µg/mL

CC(C)C(=O)OC[C@H](COc1cccc2c1B(O)O[C@@H]2CN)OC(=O)C(C)C.Cl [Example 2, (2S)-1-{[(3S)-3-(Aminomethyl)-1-hydroxy-1,3-dihydrobenzo[2,1-c][1,2]oxaborol-7-yl]oxy}-3-[(2-methylpropanoyl)oxy]propan-2-yl 2-methylpropanoate hydrochloride]
AUClast ([11]; analyte Example 2 (prodrug), lung): 968 ng·h/g | conversion of prodrug to Example 4 in vivo ([11]; plasma): rapidly converted to Example 4 | half-life ([11]; Balb/C, analyte Example 2 (prodrug), lung): 6.42 h | AUC(0-t) ([11]; Balb/C, analyte Example 2 (prodrug), plasma): 0.0421 ng·h/mL

Cl.NC[C@H]1OB(O)c2c(OCCO)ccc(Cl)c21 [GSK656, reference compound]
MIC [1]: 0.5 µg/mL | MIC [2]: > 8 µg/mL | MIC [3]: 8 µg/mL | MIC [3, 14]: ≥ 8 µg/mL | MIC ([12]; clinical isolate A35): 0.063 µg/mL | MIC ([12]; clinical isolate A51): 0.063 µg/mL | MIC ([12]; clinical isolate A197): 0.063 µg/mL | MIC ([12]; clinical isolate A213): 0.063 µg/mL | MIC ([12]; clinical isolate A215): 0.063 µg/mL | MIC ([12]; clinical isolate A217): 0.063 µg/mL | MIC ([12]; clinical isolate A222): 0.063 µg/mL | MIC ([12]; clinical isolate A255): 0.063 µg/mL | MIC ([12]; clinical isolate A268): 0.125 µg/mL | MIC ([12]; clinical isolate A274): 0.125 µg/mL | MIC ([12]; clinical isolate A311): 0.063 µg/mL | MIC ([12]; clinical isolate A353): 0.125 µg/mL | MIC ([12]; clinical isolate G73): 0.063 µg/mL | MIC ([12]; clinical isolate G74): 0.063 µg/mL | MIC ([12]; clinical isolate G87): 0.063 µg/mL | MIC ([12]; clinical isolate G104): 0.063 µg/mL | MIC ([12]; clinical isolate G110): 0.063 µg/mL | MIC ([12]; clinical isolate G164): 0.063 µg/mL | MIC ([12]; clinical isolate G182): 0.063 µg/mL | bactericidal/bacteriostatic classification over the isolates ([13]; 20 clinical isolates of M. abscessus complex): bacteriostatic against all isolates | MBC ([13]; Mycobacteroides abscessus, clinical isolate A35, read-out: MBC): > 2 µg/mL | MBC ([13]; Mycobacteroides abscessus, clinical isolate A51, read-out: MBC): > 2 µg/mL | MBC ([13]; Mycobacteroides abscessus, clinical isolate A197, read-out: MBC): > 2 µg/mL | MBC ([13]; Mycobacteroides abscessus, clinical isolate A213, read-out: MBC): 2 µg/mL | MBC ([13]; Mycobacteroides abscessus, clinical isolate A215, read-out: MBC): 2 µg/mL | MBC ([13]; Mycobacteroides abscessus, clinical isolate A217, read-out: MBC): 2 µg/mL | MBC ([13]; Mycobacteroides abscessus, clinical isolate A255, read-out: MBC): 2 µg/mL | MBC ([13]; Mycobacteroides abscessus, clinical isolate A268, read-out: MBC): > 4 µg/mL | MBC ([13]; Mycobacteroides abscessus, clinical isolate A274, read-out: MBC): > 4 µg/mL | MBC ([13]; Mycobacteroides abscessus, clinical isolate A311, read-out: MBC): 1 µg/mL | MBC ([13]; Mycobacteroides abscessus, clinical isolate A353, read-out: MBC): 2 µg/mL | MBC ([13]; Mycobacteroides abscessus, clinical isolate G73, read-out: MBC): > 2 µg/mL | MBC ([13]; Mycobacteroides abscessus, clinical isolate G74, read-out: MBC): > 4 µg/mL | MBC ([13]; Mycobacteroides abscessus, clinical isolate G87, read-out: MBC): > 2 µg/mL | MBC ([13]; Mycobacteroides abscessus, clinical isolate G104, read-out: MBC): 2 µg/mL | MBC ([13]; Mycobacteroides abscessus, clinical isolate G110, read-out: MBC): > 2 µg/mL | MBC ([13]; Mycobacteroides abscessus, clinical isolate G164, read-out: MBC): > 2 µg/mL | MBC ([13]; Mycobacteroides abscessus, clinical isolate G182, read-out: MBC): > 2 µg/mL | Classification ([13]; clinical isolate A35): Bacteriostatic (bacteriostatic if the ratio was >4) | Classification ([13]; clinical isolate A51): Bacteriostatic (bacteriostatic if the ratio was >4) | Classification ([13]; clinical isolate A197): Bacteriostatic (bacteriostatic if the ratio was >4) | Classification ([13]; clinical isolate A213): Bacteriostatic (bacteriostatic if the ratio was >4) | Classification ([13]; clinical isolate A215): Bacteriostatic (bacteriostatic if the ratio was >4) | Classification ([13]; clinical isolate A217): Bacteriostatic (bacteriostatic if the ratio was >4) | MBC ([13]; clinical isolate A222): >> | Classification ([13]; clinical isolate A222): Bacteriostatic (bacteriostatic if the ratio was >4) | Classification ([13]; clinical isolate A232): Bacteriostatic (bacteriostatic if the ratio was >4) | Classification ([13]; clinical isolate A255): Bacteriostatic (bacteriostatic if the ratio was >4) | Classification ([13]; clinical isolate A268): Bacteriostatic (bacteriostatic if the ratio was >4) | Classification ([13]; clinical isolate A274): Bacteriostatic (bacteriostatic if the ratio was >4) | Classification ([13]; clinical isolate A311): Bacteriostatic (bacteriostatic if the ratio was >4) | Classification ([13]; clinical isolate A353): Bacteriostatic (bacteriostatic if the ratio was >4) | Classification ([13]; clinical isolate G73): Bacteriostatic (bacteriostatic if the ratio was >4) | Classification ([13]; clinical isolate G74): Bacteriostatic (bacteriostatic if the ratio was >4) | Classification ([13]; clinical isolate G87): Bacteriostatic (bacteriostatic if the ratio was >4) | Classification ([13]; clinical isolate G104): Bacteriostatic (bacteriostatic if the ratio was >4) | Classification ([13]; clinical isolate G110): Bacteriostatic (bacteriostatic if the ratio was >4) | Classification ([13]; clinical isolate G164): Bacteriostatic (bacteriostatic if the ratio was >4) | Classification ([13]; clinical isolate G182): Bacteriostatic (bacteriostatic if the ratio was >4) | MIC [4]: 4 µg/mL | MIC [5]: 0.063 µg/mL | MIC [6]: >8 µg/mL | MIC [6, 15]: ≥ 8 µg/mL | fold less active than Example 4 (MIC) ([7]; M. fortuitum, M. peregrinum, M. smegmatis): more than 64 fold | MIC [8]: 0.063 µg/mL | MIC [9]: >8 µg/mL | MIC [9, 16]: ≥ 8 µg/mL | MIC [10]: > 8 µg/mL

CC(C)C(=O)OC[C@H](COc1cccc2c1B(O)O[C@@H]2CN)OC(=O)C(C)C.Cl [drawing 20]
MIC [2]: > 8 µg/mL | MIC [5]: > 8 µg/mL | MIC [10]: > 8 µg/mL
